According to patent US4694006A, “Acyl- or acyloxymethyl-allopurinol prodrugs” (priority 1983, dated 1987):
In brackets after ≈: the same amount, converted by molar mass. Structures can show the parent of a compound that is named as a salt.

How the values were obtained:
[1] = In-vitro cleavage of allopurinol derivatives to allopurinol in 80% human plasma (pH 7.4) at 37° C; format: in vitro ADME; conditions: 80% plasma, pH 7.4, 37° C, read-out: Half-time (t0.5) of the conversion to allopurinol, 80% human plasma (converted)
Description: (§1) In-vitro cleavage of allopurinol derivatives
(§2) Solutions of various derivatives of allopurinol in aqueous buffer solutions or 80% human plasma solutions (pH 7.4) were kept at 37° C. The initial concentration of the derivatives was in the range 0.01-0.1 mg/ml. At various times an aliquot of the solutions was withdrawn and analyzed by HPLC for remaining derivative as well as for allopurinol. For the plasma solutions the aliquot withdrawn was deproteinized with ethanol or trichloroacetic acid and after centrifugation, the clear supernatant was injected on HPLC.
(§3) An HPLC method was used for the determination of allopurinol and its derivatives. In this method a reversed-phase LiChrosorb RP-8 column (250×4 mm) was eluated at ambient temperature with mixtures of methanol and 0.01M acetate buffer pH 4.5 or methanol and 0.03M phosphate buffer pH 7.0. The composition of the eluant was adjusted for each compound in order to provide an appropriate retention time. The flow rate was 1.2 ml/min and the column effluent was monitored spectrophotometrically at 252 nm or 274 nm. Quantitation of the compounds was done by measurement of peak heights.
(§4) The half-times of allopurinol formation from various derivatives at physiological conditions of pH and temperature are given in Table 2. It can be seen that in the presence of human plasma the rate of degradation is strongly accelerated, thus showing the susceptibility of the derivatives to undergo conversion into the parent active compound at conditions simiar to those prevailing in vivo.

[2] = Description: (§5) The water-solubility and lipophilicity of the allopurinol drugs
(§6) The apparent partition coefficients (P) for some allopurinol derivatives and allopurinol were measured using the widely used 1-octanol-water system. Similarly, the solubility of the derivatives in water or aqueous buffer solutions was determined.

[3] = In-vitro cleavage of allopurinol derivatives to allopurinol in pH 7.4 buffer at 37° C; format: physicochemical; conditions: read-out: Half-time (t0.5) of the conversion to allopurinol, pH 7.4 buffer (converted)
Description: as §1, §2, §3, §4

physchem = conditions: water
Description: as §5, §6

SMILES	half-life [1] [min]	log P [2]	half-life [3] [min]	solubility (physchem) [µg/mL]
CCCC(=O)n1ncc2c(O)ncnc21 [1-(Butyryl)allopurinol]	2.5	0.85	36	110 (≈ 533 µM)
CC(=O)OCn1cc2c(=O)n(COC(C)=O)cnc2n1 [2,5-bis(Acetoxymethyl)allopurinol]	51		900	2900 (≈ 10300 µM)
O=C(OCn1ncc2c(=O)[nH]cnc21)c1cccnc1 [1-(Nicotinoyloxymethyl)allopurinol]	21	0.27	1560	93 (≈ 343 µM)
CC(C)(C)C(=O)OCn1cc2c(=O)n(COC(=O)C(C)(C)C)cnc2n1 [2,5-bis(Pivaloyloxymethyl)allopurinol]		2.34		
CC(C)(C)C(=O)OCn1cc2c(=O)[nH]cnc2n1 [2-(Pivaloyloxymethyl)allopurinol, 2-(pivaloyloxymethyl)allopurinol]		0.79		1700 (≈ 6790 µM)
CC(=O)n1ncc2c(O)ncnc21 [1-(Acetyl)allopurinol]	6	-0.35	26	750 (≈ 4210 µM)
CC(C)(C)C(=O)OCn1cnc2c(cnn2COC(=O)C(C)(C)C)c1=O [1,5-bis(Pivaloyloxymethyl)allopurinol]		2.50		20 (≈ 54.9 µM)
CC(=O)OCn1ncc2c(O)ncnc21 [1-(Acetoxymethyl)allopurinol, 1-(Acetyloxymethyl)allopurinol]	31	-0.35	5220	580 (≈ 2790 µM)
CC(N)C(=O)OCn1ncc2c(=O)[nH]cnc21 (racemic) [1-(DL-Alanyloxymethyl)allopurinol (hydrobromide)]	11		15	> 500000
O=C(OCn1ncc2c(=O)[nH]cnc21)c1ccccc1 [1-(Benzoyloxymethyl)allopurinol]	4	1.50	14200	
CCCCNC(=O)n1ncc2c(=O)[nH]cnc21 [1-(N--Butylcarbamoyl)allopurinol, 1-(N-Butylcarbamoyl)allopurinol]	90			
CCCC(=O)OCn1ncc2c(=O)[nH]cnc21 [1-(Butyryloxymethyl)allopurinol]	9	0.60	11600	
O=C(c1ccccc1)n1ncc2c(=O)[nH]cnc21 [1-(Benzoyl)allopurinol]	4	1.20	20	
CN(C)CCCC(=O)OCn1ncc2c(=O)[nH]cnc21 [1-[4-(N,N-Dimethylamino)butyryloxymethyl]allopurinol (hydrochloride)]	140		145	
CC(N)C(=O)OCn1cc2c(=O)n(COC(=O)C(C)N)cnc2n1 (racemic) [2,5-bis(DL-Alanyloxymethyl)allopurinol, 2,5-bis-(DL-Alanyloxymethyl)allopurinol (dihydrobromide)]	< 1		< 1	
O=C(CCl)n1ncc2c(=O)[nH]cnc21 [1-(Chloroacetyl)allopurinol]	< 1		< 1	
CC(C)(C)C(=O)OCn1ncc2c(O)ncnc21 [1-(Pivaloyloxymethyl)allopurinol]		1.07		520 (≈ 2080 µM)
CCOC(=O)OCn1ncc2c(O)ncnc21 [1-(Ethoxycarbonyloxymethyl)allopurinol]	20	0.21		
CN(C)CC(=O)n1ncc2c(=O)[nH]cnc21 [1-(N,N--Dimethylglycyl)allopurinol, 1-(N,N-Dimethylglycyl)allopurinol (hydrochloride)]	< 1		1.5	> 200000
NCC(=O)OCn1ncc2c(=O)[nH]cnc21 [1-(Glycyloxymethyl)allopurinol, 1-(Glycyloxymethyl)allopurinol (hydrochloride)]	9		26	> 500000
